Activity calls are given as the source filed them.
How the values were obtained:
Melanocortin receptor 4 = Melanocortin receptor 4 (Homo sapiens, UniProt P32245); assay type: functional, cell-based;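 note: Cell-based assay with luminescence read-out, confirmatory dose-response testing for agonist activity of biased ligands at MC4R; human U2OS cells with tagged receptor and beta-arrestin; potency of agonists that increase receptor coupling to beta-arrestin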
[1] = target: Matrix metalloproteinase-14 (Homo sapiens, UniProt P50281); test: SAR confirmation of uHTS hits for a small molecule inhibitors of MT1-MMP activation in a fluorescence assay.; assay type: functional
[2] = target: DNA repair and recombination protein RAD54-like (Homo sapiens, UniProt Q92698); test: inhibitors of human RAD54 branch migration, confirmation, biochemical, fluorescence, cherry-picked samples, dose series (AID 651657); assay type: functional
Sequence of DNA repair and recombination protein RAD54-like (Q92698 whole entry): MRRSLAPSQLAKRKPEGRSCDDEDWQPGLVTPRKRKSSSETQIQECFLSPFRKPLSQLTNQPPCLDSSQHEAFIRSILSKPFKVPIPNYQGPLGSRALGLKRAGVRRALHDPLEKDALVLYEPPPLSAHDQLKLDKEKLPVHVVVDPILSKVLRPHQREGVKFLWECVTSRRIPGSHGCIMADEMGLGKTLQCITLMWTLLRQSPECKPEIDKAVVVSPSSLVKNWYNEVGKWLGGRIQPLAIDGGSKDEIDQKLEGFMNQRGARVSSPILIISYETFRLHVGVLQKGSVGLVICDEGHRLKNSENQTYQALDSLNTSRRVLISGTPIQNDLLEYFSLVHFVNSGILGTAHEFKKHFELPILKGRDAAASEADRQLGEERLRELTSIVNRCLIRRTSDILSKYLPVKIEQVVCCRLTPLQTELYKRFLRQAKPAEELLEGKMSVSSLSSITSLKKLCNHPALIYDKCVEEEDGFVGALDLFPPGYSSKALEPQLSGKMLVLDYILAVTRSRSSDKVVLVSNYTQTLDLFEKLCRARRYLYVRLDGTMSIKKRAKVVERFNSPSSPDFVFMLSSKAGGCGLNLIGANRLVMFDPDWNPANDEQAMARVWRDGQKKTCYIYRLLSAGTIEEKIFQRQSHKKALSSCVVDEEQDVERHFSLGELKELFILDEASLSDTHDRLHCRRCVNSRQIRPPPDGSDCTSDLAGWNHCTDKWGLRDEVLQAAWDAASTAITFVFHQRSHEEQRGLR

[3] = target: T1, DNA repair protein RAD52 homolog (Homo sapiens, UniProt P43351); assay type: functional, biochemical
T1 sequence (P43351 whole entry): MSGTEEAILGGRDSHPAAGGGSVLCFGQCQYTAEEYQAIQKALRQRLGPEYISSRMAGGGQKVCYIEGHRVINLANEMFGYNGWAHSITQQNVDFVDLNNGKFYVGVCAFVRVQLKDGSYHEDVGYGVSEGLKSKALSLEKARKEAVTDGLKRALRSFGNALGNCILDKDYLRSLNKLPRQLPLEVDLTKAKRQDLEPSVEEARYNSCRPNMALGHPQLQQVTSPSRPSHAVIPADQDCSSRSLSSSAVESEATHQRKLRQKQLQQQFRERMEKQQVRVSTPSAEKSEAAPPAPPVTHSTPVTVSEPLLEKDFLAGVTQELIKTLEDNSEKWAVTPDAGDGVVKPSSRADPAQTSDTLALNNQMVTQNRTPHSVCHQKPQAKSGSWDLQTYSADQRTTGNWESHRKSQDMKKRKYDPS

Protein skinhead-1 = target: T2, Protein skinhead-1 (Caenorhabditis elegans, UniProt P34707); assay type: functional
T2 sequence (P34707 whole entry): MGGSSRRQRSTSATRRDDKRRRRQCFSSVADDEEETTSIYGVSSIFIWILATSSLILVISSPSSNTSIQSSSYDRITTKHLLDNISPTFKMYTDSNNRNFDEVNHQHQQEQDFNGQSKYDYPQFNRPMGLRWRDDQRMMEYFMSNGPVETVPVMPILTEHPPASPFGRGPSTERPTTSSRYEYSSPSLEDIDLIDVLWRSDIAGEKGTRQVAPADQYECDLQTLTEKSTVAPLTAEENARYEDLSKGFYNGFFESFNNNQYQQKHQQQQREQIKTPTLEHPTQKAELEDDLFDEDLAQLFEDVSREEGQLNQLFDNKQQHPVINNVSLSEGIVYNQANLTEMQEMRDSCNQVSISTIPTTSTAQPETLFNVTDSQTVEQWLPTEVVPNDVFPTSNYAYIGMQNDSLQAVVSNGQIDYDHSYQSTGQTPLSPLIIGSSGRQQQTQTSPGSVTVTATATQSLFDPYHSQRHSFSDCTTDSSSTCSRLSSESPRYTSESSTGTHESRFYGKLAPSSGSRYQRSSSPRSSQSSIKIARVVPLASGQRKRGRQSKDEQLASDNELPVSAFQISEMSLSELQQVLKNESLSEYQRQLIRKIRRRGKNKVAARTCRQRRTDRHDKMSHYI

Interleukin-8 [4] = target: T3, Interleukin-8 (Homo sapiens, UniProt P10145); test: Dose Response confirmation of uHTS small molecule hits for cystic fibrosis induced NFkb Inhibitors in a TNFa-induced IL8 counterscreen.; assay type: functional; settings: read-out: IC50_Mean
T3 sequence (P10145 whole entry): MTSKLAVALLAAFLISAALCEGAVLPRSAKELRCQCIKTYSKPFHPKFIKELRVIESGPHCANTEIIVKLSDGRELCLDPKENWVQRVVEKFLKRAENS

Interleukin-8 [5] = target: T3, Interleukin-8; test: Dose Response confirmation of uHTS small molecule hits for cystic fibrosis induced NFkb Inhibitors in a PAF-induced IL8 counterscreen.; assay type: functional; settings: read-out: IC50_Mean
[6] = inhibitors of HIV Env-driven cell fusion, dose response, cherry-pick (AID 652057); assay type: functional, cell-based
[7] = ZM109 Env clade C HIV-1 fusion inhibitors, dose response, HeLa effector, CEM target cells, luciferase, cherry-pick (AID 652058); assay type: functional, cell-based
[8] = off-target signal loss in HeLa-CEM21 co-culture – HeLa F-luc CTL cells, cherry-picked, counter-screen for HIV-1 Env fusion inhibitor project, dose response (AID 652040); assay type: functional, cell-based;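 note: potency for signal decrease marking cytotoxic or nonspecific inhibition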
[9] = inhibitors of clade B AD8 Env fusion, dose response, cell-based, cherry-pick (AID 652062); assay type: functional;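 note: luciferase signal from cell-cell fusion driven by HIV-1 clade B AD8 Env; potency is for inhibitors of fusion seen as a drop in luminescence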
[10] = target: Palmitoyl-protein thioesterase ABHD10, mitochondrial (Mus musculus, UniProt Q6PE15); test: Late stage assay provider results from the probe development effort to identify inhibitors of PME-1: fluorescence-based dose response biochemical gel-based competitive Activity-Based Protein Profiling (ABPP) inhibition of ABHD10 Set 1.; assay type: functional
Sequence of Palmitoyl-protein thioesterase ABHD10, mitochondrial (Q6PE15 whole entry): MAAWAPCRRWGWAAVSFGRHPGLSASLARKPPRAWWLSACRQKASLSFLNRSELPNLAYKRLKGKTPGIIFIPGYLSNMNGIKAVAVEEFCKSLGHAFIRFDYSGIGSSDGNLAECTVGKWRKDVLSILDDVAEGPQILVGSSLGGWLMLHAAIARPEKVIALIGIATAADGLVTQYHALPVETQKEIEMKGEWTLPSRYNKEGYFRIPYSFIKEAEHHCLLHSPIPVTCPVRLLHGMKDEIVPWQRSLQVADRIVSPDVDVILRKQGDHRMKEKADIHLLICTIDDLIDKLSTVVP

[11] = target: T4, ATP-dependent translocase ABCB1 (Homo sapiens, UniProt P08183); test: ABCG2 efflux pump inhibitor potency, dose response, Ig-MXP3 cells, JC-1, flow cytometry, set 2 (AID 504566); assay type: functional; settings: read-out: EC50_MICROM_;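 note: flow cytometry median green fluorescence of retained JC-1 dye; potency of efflux pump inhibition measured as rising substrate retention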
T4 sequence (P08183 whole entry): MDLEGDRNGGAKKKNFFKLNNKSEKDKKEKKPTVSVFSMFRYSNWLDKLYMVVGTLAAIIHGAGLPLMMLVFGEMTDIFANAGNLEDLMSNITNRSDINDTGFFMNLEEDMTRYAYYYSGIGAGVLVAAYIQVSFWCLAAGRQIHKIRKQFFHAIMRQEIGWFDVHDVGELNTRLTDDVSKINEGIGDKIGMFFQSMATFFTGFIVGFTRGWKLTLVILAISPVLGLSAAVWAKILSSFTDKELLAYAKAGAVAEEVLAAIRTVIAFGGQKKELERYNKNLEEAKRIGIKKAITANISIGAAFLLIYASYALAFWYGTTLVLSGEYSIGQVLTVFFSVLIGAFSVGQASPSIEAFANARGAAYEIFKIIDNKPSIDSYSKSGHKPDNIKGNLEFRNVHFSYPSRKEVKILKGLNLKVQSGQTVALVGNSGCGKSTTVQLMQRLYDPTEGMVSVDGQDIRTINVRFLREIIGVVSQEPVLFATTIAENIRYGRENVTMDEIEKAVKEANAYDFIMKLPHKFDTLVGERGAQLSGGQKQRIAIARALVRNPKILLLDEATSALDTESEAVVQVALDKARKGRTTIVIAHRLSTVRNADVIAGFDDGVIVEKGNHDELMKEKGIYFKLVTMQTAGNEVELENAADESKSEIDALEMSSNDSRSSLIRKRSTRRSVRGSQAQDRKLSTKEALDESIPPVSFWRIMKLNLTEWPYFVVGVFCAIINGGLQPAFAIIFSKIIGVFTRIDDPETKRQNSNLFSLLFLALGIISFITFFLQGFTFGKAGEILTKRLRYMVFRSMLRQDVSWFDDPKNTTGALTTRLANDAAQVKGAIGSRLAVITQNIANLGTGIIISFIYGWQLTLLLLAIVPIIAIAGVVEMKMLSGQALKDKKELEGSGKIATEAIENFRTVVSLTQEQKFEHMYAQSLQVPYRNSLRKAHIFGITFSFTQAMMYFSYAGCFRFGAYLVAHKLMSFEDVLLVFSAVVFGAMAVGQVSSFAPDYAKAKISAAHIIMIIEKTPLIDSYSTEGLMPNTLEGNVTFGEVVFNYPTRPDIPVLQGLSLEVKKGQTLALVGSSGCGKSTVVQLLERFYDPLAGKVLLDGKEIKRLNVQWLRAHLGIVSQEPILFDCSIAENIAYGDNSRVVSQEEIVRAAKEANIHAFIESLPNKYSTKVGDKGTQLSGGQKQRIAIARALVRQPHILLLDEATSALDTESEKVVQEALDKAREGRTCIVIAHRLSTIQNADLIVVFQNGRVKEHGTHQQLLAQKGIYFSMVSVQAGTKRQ

[12] = target: T4, ATP-dependent translocase ABCB1; test: ABCB1 efflux inhibitor potency, dose response, Jurkat-DNR cells, JC-1, flow cytometry, set 2 (AID 504569); assay type: functional; settings: read-out: EC50_MICROM_;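 note: potency of pump inhibitors that raise cellular JC-1 green fluorescence up to the nicardipine level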
[13] = inhibitors of TNFa-stimulated NF-kB luciferase reporter, dose response, selectivity assay for EBV LMP1 NF-kB inhibitor project, HEK293 LMP1 reporter cells, dry powder, set 2 (AID 624369); assay type: functional
Vero = test: Vero cell toxicity, dose response, cytotoxicity control, plate reader, cherry-pick samples (AID 687020); assay type: functional, cell-based; settings: Chlorocebus sabaeus
A549 = test: A549 cell toxicity, dose response, cytotoxicity control, plate reader, cherry-pick samples (AID 687028); assay type: functional, cell-based; settings: Homo sapiens
Galanin receptor type 3 = Galanin receptor type 3 (Homo sapiens, UniProt O60755); test: Fluorescence-based cell-based primary high throughput dose response assay to identify antagonists of the Galanin Receptor 3 (GalR3).; assay type: functional
Sequence of Galanin receptor type 3 (O60755 whole entry): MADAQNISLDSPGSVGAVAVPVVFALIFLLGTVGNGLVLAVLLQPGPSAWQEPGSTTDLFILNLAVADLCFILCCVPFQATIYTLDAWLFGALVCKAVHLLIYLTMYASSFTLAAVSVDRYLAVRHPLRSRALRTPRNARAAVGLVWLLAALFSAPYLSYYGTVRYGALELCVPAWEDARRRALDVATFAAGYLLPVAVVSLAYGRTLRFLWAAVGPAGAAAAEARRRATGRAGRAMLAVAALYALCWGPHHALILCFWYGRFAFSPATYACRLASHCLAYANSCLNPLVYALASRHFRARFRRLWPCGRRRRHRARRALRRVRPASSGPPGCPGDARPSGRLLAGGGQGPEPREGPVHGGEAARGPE

cells = assay type: functional, cell-based; settings: HEK-CNG

Sequence of Melanocortin receptor 4 (P32245 whole entry): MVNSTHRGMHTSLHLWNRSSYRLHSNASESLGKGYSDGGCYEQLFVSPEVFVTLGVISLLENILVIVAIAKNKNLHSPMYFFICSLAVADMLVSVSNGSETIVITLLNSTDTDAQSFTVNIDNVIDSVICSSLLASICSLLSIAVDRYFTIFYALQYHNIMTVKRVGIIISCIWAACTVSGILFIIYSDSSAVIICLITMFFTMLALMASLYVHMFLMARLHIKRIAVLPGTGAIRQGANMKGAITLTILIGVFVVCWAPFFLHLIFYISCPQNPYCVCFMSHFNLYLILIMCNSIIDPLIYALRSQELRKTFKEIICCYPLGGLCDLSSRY

**Q.** Which EC50 (Melanocortin receptor 4) does the source give for CC(C)CC(N)c1csc(Nc2ccc(C(F)(F)F)cn2)n1 (centres undefined) here?
**A.** Its EC50 is > 89.2 µM (inactive).

**Q.** For CN1/C(=C/C=C/c2n(C)c3cc([N+](=O)[O-])c([N+](=O)[O-])cc3[n+]2C)C(C)(C)c2ccccc21, which IC50 [1] is on record?
**A.** The IC50 was 6.88 µM (active).

**Q.** For CN(C)CCNC(=O)c1cccc(-c2cnc3c(NC=O)cc(-c4cccc(F)c4)cn23)c1, which AC50 [2] is on record?
**A.** The AC50 was 22.4 µM (active).

**Q.** And the AC50 [3]?
**A.** The AC50 was 5.99 µM (active).

**Q.** Which IC50 (Protein skinhead-1) does the source give for CC1(Cc2ccc(Cl)cc2)C(=O)Nc2ccc(-c3cccnc3)cc21 (centres undefined) here?
**A.** Its IC50 is 19.5 µM (active).

**Q.** What about the IC50 (Interleukin-8 [4]) of the same compound?
**A.** Its IC50 is 41.1 µM (inactive).

**Q.** What about the IC50 (Interleukin-8 [5]) of the same compound?
**A.** Its IC50 is 15.6 µM (inactive).

**Q.** What about the AC50 [6] of the same compound?
**A.** The AC50 was 1.96 µM (active).

**Q.** And the AC50 [7]?
**A.** Its AC50 is 4.18 µM (active).

**Q.** And the AC50 [8]?
**A.** Its AC50 is 6.69 µM (active).

**Q.** And the AC50 [9]?
**A.** Its AC50 is 3.3 µM (active).

**Q.** Which IC50 [10] does the source give for CC[C@@]1(c2ccc(Cl)cc2)C(=O)N(C(=O)OC)N1C(=O)OC here?
**A.** Its IC50 is 0.103 µM (active).

**Q.** With Cc1ccc(-c2cc3nc(-c4ccccc4)cc(N4CCN(C(=O)c5ccoc5)CC4)n3n2)cc1 as the compound, how does the EC50 [11] read?
**A.** Its EC50 is 0.81 µM (active).

**Q.** What about the EC50 [12] of the same compound?
**A.** Its EC50 is 0.66 µM (active).

**Q.** Which AbsAC35 [13] does the source give for O=C(C[C@@H]1C[C@H]2c3cc(NC(=O)c4ccc5c(c4)OCO5)ccc3O[C@H]2[C@H](CO)O1)NC1CCCCC1 here?
**A.** The AbsAC35 was 166.85 µM.

**Q.** With Nc1nc2ccccc2n1Cc1ccc(Cl)c(Cl)c1 as the compound, how does the AC50 (Vero) read?
**A.** Its AC50 is 1.28 µM (active).

**Q.** What about the AC50 (A549) of the same compound?
**A.** The AC50 was 2.82 µM (active).

**Q.** What does the source list for CCNCC(O)c1cccc(O)c1 (centres undefined) [ETILEFRINE]?
**A.** IC50 (Galanin receptor type 3): 1.33 µM (active); EC50 (cells): > 30 µM (inactive)
